This note sets out measurements from the NIST ThermoML archive (doi:10.1021/je800043a).

Numbers after ± are expanded uncertainties.

The nature of this data set: activity coefficient (dimensionless); of the first substance listed, at infinite dilution; xn = mol fraction of the nth substance listed. Conditions: Liquid, Chromatography, x1 = 0.

On to `CCCCCCCCCC` [decane] + CCCCCCn1cc[n+](C)c1.O=S(=O)([O-])C(F)(F)F, for which the activity coefficient was 457 ± 48 (303.15 K); 357 ± 38 (313.15 K); 279 ± 29 (323.15 K); 227 ± 24 (333.15 K); 184 ± 19 (343.15 K); 148 ± 16 (353.15 K). Moreover, the activity coefficient (363.15 K) was found to be 112 ± 12.
`C1CCCCC1` [cyclohexane] + CCCCCCn1cc[n+](C)c1.O=S(=O)([O-])C(F)(F)F: the activity coefficient amounted to 11 ± 1.1 (303.15 K); 10.9 ± 1.1 (313.15 K); 10.8 ± 1.1 (323.15 K); 10.7 ± 1.1 (333.15 K); 10.6 ± 1.1 (343.15 K); 10.5 ± 1.1 (353.15 K). Besides, the activity coefficient (363.15 K) turned out to be 10.5 ± 1.1.
For `CC1CCCCC1` [methylcyclohexane] + CCCCCCn1cc[n+](C)c1.O=S(=O)([O-])C(F)(F)F, the activity coefficient is, setting by setting: (303.15 K) 14.1 ± 1.5; (313.15 K) 14 ± 2; (323.15 K) 13.9 ± 1.5; (333.15 K) 13.8 ± 1.4; (343.15 K) 13.7 ± 1.4; (353.15 K) 13.6 ± 1.4. Further, under “363.15 K”, the activity coefficient worked out at 13.5 ± 1.4.
In the case of `CCc1ccccc1` [ethylbenzene] + CCCCCCn1cc[n+](C)c1.O=S(=O)([O-])C(F)(F)F, the activity coefficient is, setting by setting: (303.15 K) 2.88 ± 0.3; (313.15 K) 2.94 ± 0.31; (323.15 K) 2.99 ± 0.31; (333.15 K) 3.04 ± 0.32; (343.15 K) 3.12 ± 0.33; (353.15 K) 3.21 ± 0.34. The activity coefficient (363.15 K) was 3.27 ± 0.34.
With `Cc1ccc(C)cc1` [1,4-dimethylbenzene] + CCCCCCn1cc[n+](C)c1.O=S(=O)([O-])C(F)(F)F, the activity coefficient runs as follows: (303.15 K) 2.76 ± 0.29; (313.15 K) 2.84 ± 0.3; (323.15 K) 2.91 ± 0.3; (333.15 K) 2.97 ± 0.31; (343.15 K) 3.08 ± 0.32; (353.15 K) 3.16 ± 0.33. Further, the activity coefficient (363.15 K) turned out to be 3.22 ± 0.34.
With `CCCCCCCCC` [nonane] + CCCCCCn1cc[n+](C)c1.O=S(=O)([O-])C(F)(F)F, the activity coefficient is, setting by setting: (303.15 K) 45.4 ± 4.8; (313.15 K) 44.6 ± 4.7; (323.15 K) 43.7 ± 4.6; (333.15 K) 42.3 ± 4.5; (343.15 K) 41.8 ± 4.4; (353.15 K) 40.3 ± 4.2. Further, the activity coefficient (363.15 K) was determined as 39.9 ± 4.2.
With `Cc1ccccc1` [toluene] + CCCCCCn1cc[n+](C)c1.O=S(=O)([O-])C(F)(F)F, the activity coefficient came out at 1.98 ± 0.21 (303.15 K); 2.03 ± 0.21 (313.15 K); 2.06 ± 0.22 (323.15 K); 2.14 ± 0.23 (333.15 K); 2.2 ± 0.23 (343.15 K); 2.25 ± 0.24 (353.15 K). For the same compound, the activity coefficient (363.15 K) stood at 2.27 ± 0.24.
In the case of `CCCCCCCC` [octane] + CCCCCCn1cc[n+](C)c1.O=S(=O)([O-])C(F)(F)F, the activity coefficient is 35 ± 3.7 (303.15 K); 34.5 ± 3.6 (313.15 K); 33.9 ± 3.6 (323.15 K); 33.4 ± 3.5 (333.15 K); 33.1 ± 3.5 (343.15 K); 32.7 ± 3.4 (353.15 K). The activity coefficient (363.15 K) came to 32 ± 3.4.
With `CCCCCCC` [heptane] + CCCCCCn1cc[n+](C)c1.O=S(=O)([O-])C(F)(F)F, the activity coefficient by setting is: (303.15 K) 26.9 ± 2.8; (313.15 K) 26.7 ± 2.8; (323.15 K) 26.6 ± 2.8; (333.15 K) 26.5 ± 2.8; (343.15 K) 26.4 ± 2.8; (353.15 K) 26.3 ± 2.8. Besides, the activity coefficient (363.15 K) was 26.1 ± 2.7.
In the case of `CC(C)CC(C)(C)C` [2,2,4-trimethylpentane] + CCCCCCn1cc[n+](C)c1.O=S(=O)([O-])C(F)(F)F, the activity coefficient is, setting by setting: (303.15 K) 27.5 ± 2.9; (313.15 K) 26.9 ± 2.8; (323.15 K) 26.7 ± 2.8; (333.15 K) 26.3 ± 2.8; (343.15 K) 25.9 ± 2.7; (353.15 K) 25.7 ± 2.7. For the same compound, the activity coefficient (363.15 K) stood at 25.4 ± 2.7.
With `c1ccccc1` [benzene] + CCCCCCn1cc[n+](C)c1.O=S(=O)([O-])C(F)(F)F, the activity coefficient is 1.43 ± 0.15 (303.15 K); 1.48 ± 0.15 (313.15 K); 1.5 ± 0.16 (323.15 K); 1.55 ± 0.16 (333.15 K); 1.6 ± 0.2 (343.15 K); 1.64 ± 0.17 (353.15 K). Besides, the activity coefficient (363.15 K) is 1.65 ± 0.17.
With `Cc1ccccc1C` [1,2-dimethylbenzene] + CCCCCCn1cc[n+](C)c1.O=S(=O)([O-])C(F)(F)F, the activity coefficient (303.15 K) amounted to 2.39 ± 0.25; the activity coefficient (313.15 K) is 2.47 ± 0.26; the activity coefficient (323.15 K) amounted to 2.56 ± 0.27; the activity coefficient (333.15 K) was found to be 2.64 ± 0.28; the activity coefficient (343.15 K) came to 2.67 ± 0.28; the activity coefficient (353.15 K) worked out at 2.72 ± 0.28. Also, the activity coefficient (363.15 K) is 2.8 ± 0.29.
As to `C1=CCCCC1` [cyclohexene] + CCCCCCn1cc[n+](C)c1.O=S(=O)([O-])C(F)(F)F, the activity coefficient was 6.12 ± 0.64 (303.15 K); 6.2 ± 0.65 (313.15 K); 6.26 ± 0.66 (323.15 K); 6.37 ± 0.67 (333.15 K); 6.43 ± 0.68 (343.15 K); 6.5 ± 0.68 (353.15 K). Moreover, the activity coefficient (363.15 K) came to 6.55 ± 0.69.
For `C=Cc1ccccc1` [styrene] + CCCCCCn1cc[n+](C)c1.O=S(=O)([O-])C(F)(F)F, the activity coefficient came out at 1.7 ± 0.2 (303.15 K); 1.73 ± 0.18 (313.15 K); 1.76 ± 0.18 (323.15 K); 1.81 ± 0.19 (333.15 K); 1.84 ± 0.19 (343.15 K); 1.85 ± 0.19 (353.15 K). Also, the activity coefficient (363.15 K) came out at 1.88 ± 0.2.
As for `CCCCC` [pentane] + CCCCCCn1cc[n+](C)c1.O=S(=O)([O-])C(F)(F)F, the activity coefficient was determined as 14.8 ± 1.6 (303.15 K); 14.6 ± 1.5 (313.15 K); 14.5 ± 1.5 (323.15 K); 14.3 ± 1.5 (333.15 K); 14.1 ± 1.5 (343.15 K); 14 ± 1.5 (353.15 K). In addition, the activity coefficient (363.15 K) stood at 13.9 ± 1.5.
Take `Cc1cccc(C)c1` [1,3-dimethylbenzene] + CCCCCCn1cc[n+](C)c1.O=S(=O)([O-])C(F)(F)F: the activity coefficient runs as follows: (303.15 K) 2.82 ± 0.3; (313.15 K) 2.88 ± 0.3; (323.15 K) 2.97 ± 0.31; (333.15 K) 3.03 ± 0.32; (343.15 K) 3.12 ± 0.33; (353.15 K) 3.19 ± 0.34. For the same compound, where the note is “363.15 K”, the activity coefficient was 3.25 ± 0.34.
Turning to `CCCCCC` [hexane] + CCCCCCn1cc[n+](C)c1.O=S(=O)([O-])C(F)(F)F, the activity coefficient was 21.3 ± 2.2 (303.15 K); 21.2 ± 2.2 (313.15 K); 21.1 ± 2.2 (323.15 K); 20.9 ± 2.2 (333.15 K); 20.8 ± 2.2 (343.15 K); 20.7 ± 2.2 (353.15 K). The activity coefficient (363.15 K) was determined as 20.5 ± 2.2.
